Where two headings read alike, the source gives them in different places.
Tests used:
human recombinant COX-2 = molecular target: T1, human recombinant COX-2 (Homo sapiens, UniProt P35354); experiment: COX Inhibitor Screening Kit (Cayman), fluorescence-based, COX-2 inhibition; assay type: biochemical; conditions: for COX-2 activity in words: SAR discussion; for fold decrease in COX-2 activity versus analog: 41 and 42 versus 14, 17 versus 16
T1 construct: purchased Cayman Chemical 700100, No. 760111
T1 sequence (P35354 18-604): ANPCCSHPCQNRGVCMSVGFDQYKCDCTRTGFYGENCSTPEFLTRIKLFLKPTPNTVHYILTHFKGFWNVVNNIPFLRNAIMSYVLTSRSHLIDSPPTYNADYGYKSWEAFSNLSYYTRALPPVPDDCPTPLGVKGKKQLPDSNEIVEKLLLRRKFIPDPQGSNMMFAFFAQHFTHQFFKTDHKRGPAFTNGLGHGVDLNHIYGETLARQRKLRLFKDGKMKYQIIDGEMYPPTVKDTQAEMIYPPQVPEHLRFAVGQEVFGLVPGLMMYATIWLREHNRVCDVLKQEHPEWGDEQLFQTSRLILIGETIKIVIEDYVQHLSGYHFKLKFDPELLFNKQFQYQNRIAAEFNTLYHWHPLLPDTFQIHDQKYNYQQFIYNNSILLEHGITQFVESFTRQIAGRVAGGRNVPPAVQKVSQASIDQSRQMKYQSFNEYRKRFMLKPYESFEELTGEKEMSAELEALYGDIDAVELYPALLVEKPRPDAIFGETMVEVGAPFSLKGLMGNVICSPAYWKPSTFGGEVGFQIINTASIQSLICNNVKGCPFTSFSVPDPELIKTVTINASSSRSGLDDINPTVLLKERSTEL

COX-2 = molecular target: T2, COX-2 (Rattus norvegicus, UniProt P35355); experiment: Ex vivo cerebral biodistribution and blocking studies in quinolinic acid lesioned rats; parameters: species or system Wistar rats
T2 construct: from tissue; host or cells: brain regions of QA-lesioned Wistar rats (in vivo injection, ex vivo counting)
T2 sequence (P35355 18-604): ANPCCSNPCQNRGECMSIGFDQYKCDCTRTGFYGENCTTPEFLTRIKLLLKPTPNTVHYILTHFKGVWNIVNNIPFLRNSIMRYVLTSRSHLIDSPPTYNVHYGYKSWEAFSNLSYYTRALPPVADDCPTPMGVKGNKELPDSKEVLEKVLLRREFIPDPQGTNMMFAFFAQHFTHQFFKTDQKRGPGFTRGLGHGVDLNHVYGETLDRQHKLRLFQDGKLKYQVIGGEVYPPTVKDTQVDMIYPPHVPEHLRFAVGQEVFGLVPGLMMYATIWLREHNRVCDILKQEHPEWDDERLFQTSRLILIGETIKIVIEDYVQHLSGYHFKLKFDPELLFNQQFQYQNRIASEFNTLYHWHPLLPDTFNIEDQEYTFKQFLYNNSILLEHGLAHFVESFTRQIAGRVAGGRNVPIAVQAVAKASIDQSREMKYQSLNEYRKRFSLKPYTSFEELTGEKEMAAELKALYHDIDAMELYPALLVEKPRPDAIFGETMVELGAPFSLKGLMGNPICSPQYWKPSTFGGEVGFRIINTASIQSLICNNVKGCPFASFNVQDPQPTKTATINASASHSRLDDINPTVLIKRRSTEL
Text: This model consists of a unilateral intrastriatal injection of quinolinic acid to induce excitotoxicity mediated via NMDA receptor activation. This animal model is well known in the literature to produce an inflammatory reaction induced by COX-2 activation in lesioned cerebral parenchyma.
The cerebral biodistribution of [^18F]16 in rats lesioned with QA was expressed as percent of injected dose per gram of tissue (%ID/g) and is shown in Figure 3.
Figure 3. Cerebral biodistribution of [^18F]16, 60 min after i.v. injection in rats, 7 days after focal intrastriatal injection of 150 nmol of quinolinic acid. In the “celecoxib” and “cold 16” groups, animals received an i.v. pre-injection (15 min) of the corresponding compound (3 mg/kg). Results are expressed as % injected dose/g tissue ± SEM. Cx: cortex; Stri: striatum; Hip: hippocampus, Cb: cerebellum.
Blocking in vivo experiments, consisting of a pretreatment with either celecoxib or cold 16 (3 mg/kg) 15 min before injection of the radiotracer, are also presented in Figure 3. […] This confirmed that the low in vivo accumulation observed consisted of nonspecific binding.
Animals. All procedures were conducted in accordance with the requirements of the European Community Council for the care of laboratory animals 2010/63/EU, and approved by the regional ethical committee (Authorization N°2015022011523044). Experiments were carried out on adult Wistar rats (Centre d’Elevage René Janvier, Le Genest-St-Isle, France) weighing 276 ± 19 g at the beginning of the experiments. Animals were housed in groups of two per cage in a temperature and humidity controlled environment (temperature 21 °C ± 1 °C; hygrometry 55% ± 5%), under a 12 h light/dark cycle with food and water available ad libitum.
Surgery: Surgery was performed under isoflurane (AErrane, Baxter, France) anaesthesia (4% for anaesthesia induction and thereafter 2% for its maintenance, in N2O-O2: 70%-30%). The animal's body temperature (36.8 ± 0.5 °C) was monitored with a homoeothermic probe throughout surgery. A unilateral striatal QA lesion was induced in 18 adult male Wistar rats as previously described^14. This procedure results in a well-delineated reproducible excitotoxic lesion to the striatum and ipsilateral cortex.
Ex vivo cerebral biodistribution studies were performed with [^18F]16 in QA lesioned animals at 7 days post lesion (n=6 per group). Rats were i.v. injected (penis vein) with [^18F]16 (2.5 ± 1 MBq) in 300 μL normal saline). […] Animals were sacrificed by decapitation 60 min post [^18F]16 injection. The whole brain was quickly removed and several brain areas (cerebellum, left and right hippocampus, left and right frontal cortex, and left and right striatum), together with the femur, to detect potential in vivo defluorination of the tracer, were dissected and weighed, and their radioactivity was measured using an automated gamma counter (2480 Gamma counter Wizard, Perkin Elmer). The percentage of injected dose per gram tissue (%ID/g) was calculated by comparison with samples to standard dilutions of the initial injected solution.
Statistical analysis: Results were expressed as mean ± standard error of the mean (SEM). Groups of rats (control vs unlabeled compound 16 preinjection, or control vs celecoxib preinjection) were compared using the Mann–Whitney test. Comparisons of binding between ipsi- and contralateral brain structures were performed using the Wilcoxon one-tailed test. The level of significance was p<0.05 (XLStat software®).

[1] = means of triplicates, except DuP-697 (n = 27) and Celecoxib (n = 5)

| SMILES | melting point [°C] | IC50 (human recombinant COX-2; [1]) [µM] | further results |
| --- | --- | --- | --- |
| CS(=O)(=O)c1ccc(-n2nc3ccccc3c2-c2ccc(F)nc2)cc1 [compound 22, 3-(6-Fluoro-3-pyridyl)-2-(4-methylsulfonylphenyl)indazole] | 216 to 218 | > 25 |  |
| COc1ccc(-c2c3ccccc3nn2-c2ccc(S(C)(=O)=O)cc2)cn1 [compound 24, 3-(6-Methoxy-3-pyridyl)-2-(4-methylsulfonylphenyl)indazole] | 146 to 148 | 2.98 ± 0.4 | COX-2 activity in words (human recombinant COX-2): moderate activity |
| NS(=O)(=O)c1ccc(-n2nc3ccccc3c2-c2ccc([N+](=O)[O-])cc2)cc1 [compound 42, 4-[3-(4-Nitrophenyl)indazol-2-yl]benzenesulfonamide] | 221 to 223 |  | fold decrease in COX-2 activity versus analog (human recombinant COX-2): 4 fold |
| CS(=O)(=O)c1ccc(-n2nc3cccnc3c2-c2ccc(F)cc2)cc1 [compound 39, 3-(4-Fluorophenyl)-2-(4-methylsulfonylphenyl)pyrazolo[4,3-b]pyridine] | 219 to 221 | > 25 |  |
| CS(=O)(=O)c1ccc(-n2nc3ccccc3c2-c2ccc(F)nc2F)cc1 [compound 23, 3-(2,6-Difluoro-3-pyridyl)-2-(4-methylsulfonylphenyl)indazole] | 84 to 86 | > 25 |  |
| CCOc1ncc(-c2c3ccccc3nn2-c2ccc(S(C)(=O)=O)cc2)cn1 [compound 27, 3-(2-Ethoxypyrimidin-5-yl)-2-(4-methylsulfonylphenyl)indazole] | 217 to 219 | > 25 | COX-2 activity in words (human recombinant COX-2): totally inactive |
| CS(=O)(=O)c1ccc(-n2nc3ccccc3c2-c2ccc(Cl)c(C(F)(F)F)c2)cc1 [compound 21, 3-[4-Chloro-3-(trifluoromethyl)phenyl]-2-(4-methylsulfonylphenyl)indazole] | 197 to 199 | 1.1 ± 0.3 |  |
| CCOc1ccc(-c2c3ccccc3nn2-c2ccc(S(C)(=O)=O)cc2)cc1F [compound 19, 3-(4-Ethoxy-3-fluoro-phenyl)-2-(4-methylsulfonylphenyl)indazole] | 138 to 140 | > 25 |  |
| NS(=O)(=O)c1ccc(-n2nc3ccccc3c2-c2ccc([18F])cc2)cc1 [[^18F]16, 4-[3-(4-[^18F]Fluorophenyl)indazol-2-yl]benzenesulfonamide] |  |  | defluorination in vivo (COX-2; from femur uptake, rats): negligible defluorination; decrease in accumulation after blocking pretreatment (COX-2; pretreatment with celecoxib or cold 16 (3 mg/kg i.v.) 15 min before radiotracer): In none of these experiments was a decrease in [^18F]16 accumulation observed; bone uptake in the femur (COX-2; rats, 60 min after i.v. injection): 0.154 ± 0.032 %ID/g tissue; accumulation in activated brain areas compared to contralateral striatum and cortex (COX-2; rats, 7 days after intrastriatal QA, 60 min after i.v. injection): no statistically significant difference; passage through the blood-brain-barrier (BBB) (COX-2; rats, preliminary results): low passage |
| CCOc1ccc(-c2c3ccccc3nn2-c2ccc(S(C)(=O)=O)cc2)cc1C(F)(F)F [compound 20, 3-[4-Ethoxy-3-(trifluoromethyl)phenyl]-2-(4-methylsulfonylphenyl)indazole] | 196 to 198 |  |  |
| NS(=O)(=O)c1ccc(-n2nc3ccccc3c2-c2cccc(F)c2)cc1 [compound 17, 4-[3-(3-Fluorophenyl)indazol-2-yl]benzenesulfonamide] | > 250 | 4.2 ± 0.4 | fold decrease in COX-2 activity versus analog (human recombinant COX-2): 10 fold |
| Cc1ccc(-c2c3ccccc3nn2-c2ccc(S(C)(=O)=O)cc2)cc1F [compound 18, 3-(3-Fluoro-4-methyl-phenyl)-2-(4-methylsulfonylphenyl)indazole] | 149 to 151 | 1.03 ± 0.2 |  |
| CS(=O)(=O)c1ccc(-n2nc3ncccc3c2-c2ccc(F)cc2)cc1 [compound 41, 3-(4-Fluorophenyl)-2-(4-methylsulfonylphenyl)pyrazolo[3,4-b]pyridine] |  | 4.75 ± 0.6 | fold decrease in COX-2 activity versus analog (human recombinant COX-2): 4 fold |
| CS(=O)(=O)c1ccc(-n2nc3cnccc3c2-c2ccc(F)cc2)cc1 [compound 40, 3-(4-Fluorophenyl)-2-(4-methylsulfonylphenyl)pyrazolo[3,4-c]pyridine] |  | 4.42 ± 0.6 |  |
| CS(=O)(=O)c1ccc(-c2c3ccccc3nn2-c2ccc(F)cc2)cc1 [compound 15, 2-(4-Fluorophenyl)-3-(4-methylsulfonylphenyl)indazole] | 198 to 200 | 2.3 ± 0.5 | IC50 (human recombinant COX-2): ≤ 2 µM |
| CCOc1ccc(-c2c3ccccc3nn2-c2ccc(S(C)(=O)=O)cc2)cn1 [compound 26, 3-(6-Ethoxy-3-pyridyl)-2-(4-methylsulfonylphenyl)indazole] | 147 to 149 | 4.46 ± 0.4 | COX-2 activity in words (human recombinant COX-2): moderate activity |
| CS(=O)(=O)c1ccc(-n2nc3ccccc3c2-c2ccc(F)cc2)cc1 [compound 14, 3-(4-Fluorophenyl)-2-(4-methylsulfonylphenyl)indazole] | 173 to 175 | 1.46 ± 0.5 | IC50 (human recombinant COX-2): ~1 µM |
| COc1cncc(-c2c3ccccc3nn2-c2ccc(S(C)(=O)=O)cc2)c1 [compound 25, 3-(5-Methoxy-3-pyridyl)-2-(4-methylsulfonylphenyl)indazole] | 215 to 217 | > 25 |  |

Source: publication PMC6211253, “Design of selective COX-2 inhibitors in the (aza)indazole series. Chemistry, in vitro studies, radiochemistry and evaluations in rats of a [^18F] PET tracer” (Journal of Enzyme Inhibition and Medicinal Chemistry, 2018)
